Tested on: plants
Assay: Test D pre-emergence, other plants of Tables D1 and D3
Assay type: in vivo
Conditions: for damage to plant, ALOMY / damage to plant, AVEFA / damage to plant, BEAVA / damage to plant, BROTE / damage to plant, BRSNN / damage to plant, CHEAL / damage to plant, GALAP / damage to plant, HORVW / damage to plant, KCHSC / damage to plant, LOLPE / damage to plant, POAAN / damage to plant, POLCO / damage to plant, SINAR / damage to plant, STEME / damage to plant, VERPE: pre-emergence, 100=total damage, 0=no damage
Method: A formulation containing 50 g/L of the test chemical was prepared by dissolving the active ingredient in a mixture of organic solvents and emulsifier, details of which are provided in the table. This formulation was then mixed with a small, variable amount of acetone to aid dissolution, before addition of a 0.2% v/v aqueous solution of an adjuvant, as the aqueous diluent, to form an aqueous spray solution which contains a predetermined concentration of the active ingredient.
This aqueous spray solution was then sprayed onto plants including maize and wheat that had been seed treated with a herbicide safener, after one day's cultivation (for pre-emergence) or after about 12 days' cultivation (for post-emergence). The plants were grown from seeds sown in standard soil, placed in a glasshouse under controlled conditions (at 24/18° C. or 20/16° C., day/night; 16 h light; 65% humidity). After spray application the plants were then grown in a glasshouse under the same conditions and watered twice daily. After 15 d for post-emergence and 20 DAA for pre-emergence the test was evaluated (100=total damage to plant; 0=no damage to plant).

In the case of `CN1CC(c2cc(C(F)(F)F)n(C)n2)C(C(=O)Nc2ccc(F)c(F)c2F)C1=O` (racemic) [Compound 17], the “damage to plant (100=total damage to plant; 0=no damage to plant), SORVU” value (SORVU, preemergent, rate 500, 20 DAA) is reported as 0, the “damage to plant, ALOMY” value (rate 15, 20 DAA) is reported as 0 and the “damage to plant, AVEFA” value (rate 15, 20 DAA) is reported as 0. For the same compound, the “damage to plant, BEAVA” value (rate 15, 20 DAA) was 0, the “damage to plant, BROTE” value (rate 15, 20 DAA) was 0 and the “damage to plant, BRSNN” value (rate 15, 20 DAA) was 0. The “damage to plant, CHEAL” value (rate 15, 20 DAA) was 0, the “damage to plant, GALAP” value (rate 15, 20 DAA) was 0 and the “damage to plant, HORVW” value (rate 15, 20 DAA) was 0. The “damage to plant, KCHSC” value (rate 15, 20 DAA) was 0, the “damage to plant, LOLPE” value (rate 15, 20 DAA) was 0 and the “damage to plant, POAAN” value (rate 15, 20 DAA) was 0. The “damage to plant, POLCO” value (rate 15, 20 DAA) was 0, the “damage to plant, SINAR” value (rate 15, 20 DAA) was 0 and the “damage to plant, STEME” value (rate 15, 20 DAA) was 0. For the same compound, the “damage to plant, VERPE” value (rate 15, 20 DAA) was 0, the “damage to plant, ALOMY” value (rate 30, 20 DAA) was 0 and the “damage to plant, AVEFA” value (rate 30, 20 DAA) was 0. The “damage to plant, BEAVA” value (rate 30, 20 DAA) was 0, the “damage to plant, BROTE” value (rate 30, 20 DAA) was 0 and the “damage to plant, BRSNN” value (rate 30, 20 DAA) was 0. The “damage to plant, CHEAL” value (rate 30, 20 DAA) was 0, the “damage to plant, GALAP” value (rate 30, 20 DAA) was 0 and the “damage to plant, HORVW” value (rate 30, 20 DAA) was 0. For the same compound, the “damage to plant, KCHSC” value (rate 30, 20 DAA) was 0, the “damage to plant, LOLPE” value (rate 30, 20 DAA) was 0 and the “damage to plant, POAAN” value (rate 30, 20 DAA) was 20. The “damage to plant, POLCO” value (rate 30, 20 DAA) was 0, the “damage to plant, SINAR” value (rate 30, 20 DAA) was 0 and the “damage to plant, STEME” value (rate 30, 20 DAA) was 0. The “damage to plant, VERPE” value (rate 30, 20 DAA) was 0, the “damage to plant, ALOMY” value (rate 60, 20 DAA) was 0 and the “damage to plant, AVEFA” value (rate 60, 20 DAA) was 0. For the same compound, the “damage to plant, BEAVA” value (rate 60, 20 DAA) was 0, the “damage to plant, BROTE” value (rate 60, 20 DAA) was 0 and the “damage to plant, BRSNN” value (rate 60, 20 DAA) was 0. The “damage to plant, GALAP” value (rate 60, 20 DAA) was 0, the “damage to plant, HORVW” value (rate 60, 20 DAA) was 0 and the “damage to plant, KCHSC” value (rate 60, 20 DAA) was 0. For the same compound, the “damage to plant, LOLPE” value (rate 60, 20 DAA) was 20, the “damage to plant, POAAN” value (rate 60, 20 DAA) was 30 and the “damage to plant, POLCO” value (rate 60, 20 DAA) was 0. For the same compound, the “damage to plant, SINAR” value (rate 60, 20 DAA) was 0, the “damage to plant, STEME” value (rate 60, 20 DAA) was 0 and the “damage to plant, VERPE” value (rate 60, 20 DAA) was 0. For the same compound, the “damage to plant, ALOMY” value (rate 130, 20 DAA) was 50, the “damage to plant, AVEFA” value (rate 130, 20 DAA) was 60 and the “damage to plant, BEAVA” value (rate 130, 20 DAA) was 0. For the same compound, the “damage to plant, BROTE” value (rate 130, 20 DAA) was 0, the “damage to plant, BRSNN” value (rate 130, 20 DAA) was 0 and the “damage to plant, CHEAL” value (rate 130, 20 DAA) was 50. The “damage to plant, GALAP” value (rate 130, 20 DAA) was 0, the “damage to plant, HORVW” value (rate 130, 20 DAA) was 10 and the “damage to plant, KCHSC” value (rate 130, 20 DAA) was 0. For the same compound, the “damage to plant, LOLPE” value (rate 130, 20 DAA) was 40, the “damage to plant, POAAN” value (rate 130, 20 DAA) was 70 and the “damage to plant, POLCO” value (rate 130, 20 DAA) was 0. The “damage to plant, SINAR” value (rate 130, 20 DAA) was 0, the “damage to plant, STEME” value (rate 130, 20 DAA) was 10 and the “damage to plant, VERPE” value (rate 130, 20 DAA) was 30. The “damage to plant, ALOMY” value (rate 250, 20 DAA) was 60, the “damage to plant, AVEFA” value (rate 250, 20 DAA) was 70 and the “damage to plant, BEAVA” value (rate 250, 20 DAA) was 0. For the same compound, the “damage to plant, BROTE” value (rate 250, 20 DAA) was 40, the “damage to plant, BRSNN” value (rate 250, 20 DAA) was 0 and the “damage to plant, CHEAL” value (rate 250, 20 DAA) was 60. For the same compound, the “damage to plant, GALAP” value (rate 250, 20 DAA) was 0, the “damage to plant, HORVW” value (rate 250, 20 DAA) was 40 and the “damage to plant, KCHSC” value (rate 250, 20 DAA) was 10. The “damage to plant, LOLPE” value (rate 250, 20 DAA) was 80, the “damage to plant, POAAN” value (rate 250, 20 DAA) was 80 and the “damage to plant, POLCO” value (rate 250, 20 DAA) was 20. The “damage to plant, SINAR” value (rate 250, 20 DAA) was 0, the “damage to plant, STEME” value (rate 250, 20 DAA) was 30 and the “damage to plant, VERPE” value (rate 250, 20 DAA) was 60. For the same compound, the “damage to plant, ALOMY” value (rate 500, 20 DAA) was 80, the “damage to plant, AVEFA” value (rate 500, 20 DAA) was 80 and the “damage to plant, BEAVA” value (rate 500, 20 DAA) was 10. The “damage to plant, BROTE” value (rate 500, 20 DAA) was 60, the “damage to plant, BRSNN” value (rate 500, 20 DAA) was 20 and the “damage to plant, CHEAL” value (rate 500, 20 DAA) was 70. The “damage to plant, GALAP” value (rate 500, 20 DAA) was 20, the “damage to plant, HORVW” value (rate 500, 20 DAA) was 90 and the “damage to plant, KCHSC” value (rate 500, 20 DAA) was 30. The “damage to plant, LOLPE” value (rate 500, 20 DAA) was 80, the “damage to plant, POAAN” value (rate 500, 20 DAA) was 90 and the “damage to plant, POLCO” value (rate 500, 20 DAA) was 30. For the same compound, the “damage to plant, SINAR” value (rate 500, 20 DAA) was 0, the “damage to plant, STEME” value (rate 500, 20 DAA) was 60 and the “damage to plant, VERPE” value (rate 500, 20 DAA) was 90.

Reference: US20220281848A1, “PYRAZOLE-SUBSTITUTED PYRROLIDINONES AS HERBICIDES” (FMC Corporation, priority 2019, published 2022)
